Test results reported in paper PMC8683085, “Serine ADP-ribosylation marks nucleosomes for ALC1-dependent chromatin remodeling” (eLife, 2021).
Where two headings read alike, the source gives them in different places.

Assays:
[1] = biological target: T1, Af1521 macrodomain (fused to rabbit Fc tag) (Archaeoglobus fulgidus, UniProt O28751); test: Fluorescence polarization binding of fluorescein-labeled ADP-ribosylated histone peptides to the Af1521 macrodomain (pan-ADP-ribose detection reagent); settings: fluorescein-labeled peptide 2 nM, reagent titrated 0-2000 nM (4000 nM for mono-/di-ADPr), 25 mM Tris pH 7.5, 100 mM NaCl, 2 mM MgCl2, 0.001% Triton X100, 1 mM DTT, one-site specific binding fit, n = 3, read-out: Kd,app
T1 construct: Af1521 macrodomain fused to rabbit Fc tag, MilliporeSigma; purchased MilliporeSigma
T1 sequence (O28751 1-192): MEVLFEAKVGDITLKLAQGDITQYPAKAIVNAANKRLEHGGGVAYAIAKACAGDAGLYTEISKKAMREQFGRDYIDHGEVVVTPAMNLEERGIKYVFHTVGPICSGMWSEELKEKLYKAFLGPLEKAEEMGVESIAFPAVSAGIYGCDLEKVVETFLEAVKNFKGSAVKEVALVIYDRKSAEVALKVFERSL

[2] = biological target: T2, ALC1 macrodomain (Homo sapiens, UniProt Q86WJ1); test: Fluorescence polarization binding of fluorescein-labeled ADP-ribosylated histone peptides to the ALC1 macrodomain
T2 construct: A fragment encoding amino acids 636–878, corresponding to the macrodomain; 6xHis-SUMO (N, cleaved yes); made in house; host or cells: E. coli Rosetta2 (DE3)
T2 sequence (Q86WJ1 636-878): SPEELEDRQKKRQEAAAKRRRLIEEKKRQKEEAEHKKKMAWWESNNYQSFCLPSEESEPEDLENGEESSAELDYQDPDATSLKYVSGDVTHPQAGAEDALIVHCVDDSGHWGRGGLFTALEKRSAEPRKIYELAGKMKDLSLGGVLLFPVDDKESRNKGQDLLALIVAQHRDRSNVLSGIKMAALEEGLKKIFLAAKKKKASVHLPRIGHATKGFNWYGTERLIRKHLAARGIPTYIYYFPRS
Method: Each fluorescently-labeled H2B (unmodified, mono-, di-, tri-, and tetra-ADP-ribose at H2BS6) and H3 peptide (unmodified, mono-, di-, tri-, tetra-, or penta-ADP-ribose at H3S10) was diluted to 2 nM in a buffer containing 25 mM Tris, pH 7.5, 100 mM NaCl, 2 mM MgCl2, 0.001% Triton X100, and 1 mM DTT. Note, H3 elongates more efficiently than H2B and so the penta-ADP-ribosylated species could be isolated for this peptide. Peptide concentration was calculated via fluorescein extinction coefficient (A480 = 70,000). To analyze peptide:pan-ADP-ribose detection reagent (Af1521 macrodomain fused to rabbit Fc tag, MilliporeSigma) interaction, the pan-ADP-ribose detection reagent was titrated into each peptide to final concentrations ranging from 0 to 2000 nM (points represent 3 x dilutions starting from 2000 nM; a higher concentration of 4000 nM was also included for mono- and di-ADP-ribosylated peptides). To analyze peptide:ALC1-macrodomain interaction, the ALC1-macrodomain was titrated into each peptide to final concentrations ranging from 0 to 3000 nM (points represent 3 x dilutions starting from 3000 nM). Reactions were added to a black, flat-bottom 96-well plate (Corning Costar) and analyzed on a BioTek Cytation five imager equipped with a Green FP filter set (excitation: 485 nm, emission: 528 nm). […]

[3] = biological target: T3, ALC1 (Homo sapiens, UniProt Q86WJ1); test: Restriction enzyme accessibility (REA) nucleosome remodeling assay, single substrate, recombinant ALC1; assay type: biochemical; settings: for k, ALC1 remodeling rate constant on unmodified nucleosome in the presence of free ADP-ribosylated peptide: REA assay, 4 nM ALC1, unmodified nucleosome 20 nM, peptide 40 nM, 2 mM ATP, one-phase exponential decay fit, n = 3
T3 sequence (Q86WJ1 1-897): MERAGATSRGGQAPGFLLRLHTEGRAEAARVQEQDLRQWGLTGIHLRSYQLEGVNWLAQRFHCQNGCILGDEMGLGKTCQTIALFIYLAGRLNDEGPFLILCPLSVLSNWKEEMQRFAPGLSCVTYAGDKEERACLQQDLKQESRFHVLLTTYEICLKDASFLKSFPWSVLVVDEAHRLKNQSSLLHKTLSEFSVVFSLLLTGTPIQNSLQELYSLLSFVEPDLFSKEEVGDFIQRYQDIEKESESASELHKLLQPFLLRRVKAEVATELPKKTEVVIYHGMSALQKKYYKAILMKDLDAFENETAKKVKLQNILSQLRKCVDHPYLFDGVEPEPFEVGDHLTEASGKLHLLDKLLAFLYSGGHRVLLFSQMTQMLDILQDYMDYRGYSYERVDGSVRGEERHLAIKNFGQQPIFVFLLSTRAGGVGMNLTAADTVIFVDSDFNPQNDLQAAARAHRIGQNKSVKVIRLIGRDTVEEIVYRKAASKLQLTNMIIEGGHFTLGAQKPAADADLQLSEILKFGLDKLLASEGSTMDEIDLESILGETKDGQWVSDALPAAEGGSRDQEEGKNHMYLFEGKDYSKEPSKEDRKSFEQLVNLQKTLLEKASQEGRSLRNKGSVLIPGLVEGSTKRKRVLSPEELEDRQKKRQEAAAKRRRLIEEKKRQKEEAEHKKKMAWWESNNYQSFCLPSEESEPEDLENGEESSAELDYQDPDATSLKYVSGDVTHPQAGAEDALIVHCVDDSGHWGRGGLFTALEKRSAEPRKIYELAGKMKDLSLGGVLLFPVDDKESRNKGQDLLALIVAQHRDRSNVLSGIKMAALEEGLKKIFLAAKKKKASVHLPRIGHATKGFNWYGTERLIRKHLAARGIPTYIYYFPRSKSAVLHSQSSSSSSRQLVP
Method: REA assays and analysis were performed as previously described ([Dann et al., 2017]) with several modifications. Nucleosome remodeling reactions (25 μL) were carried out in REA Buffer (12 mM HEPES, pH 7.9, 4 mM Tris, pH 7.5, 60 mM KCl, 10 mM MgCl2, 10% glycerol, and 0.02% NP-40) including 1 μL of PstI (NEB, at 100,000 U/mL), 2 mM ATP (Sigma-Aldrich), and final concentrations of 4 nM ALC1 or 10 nM CHD4 and 20 nM of the desired nucleosome substrate. The reaction was incubated for 5 min prior to addition of chromatin remodeler to ensure that any trace amount of free DNA from the nucleosome assembly was digested prior to initiating the reaction. This is required to ensure that free DNA digestion can be assigned as background activity and is not interpreted as enzyme-dependent nucleosome remodeling in data processing. To each reaction, 37.5 μL of Quench Buffer (20 mM Tris, pH 7.5, 70 mM EDTA, pH 8, 2% SDS, 10% glycerol) was added at time points of 0, 3, 6, 18, 36, and 60 min. Samples were then deproteinized with 30 U/mL proteinase K (NEB) for 1 h at 37 °C. DNA purification was performed using the Qiagen PCR purification kit following manufacturer’s protocols. Purple Gel Loading Dye (6 X, NEB) was added to a final concentration of 1 X to the quenched reaction and samples were loaded onto a 5% TBE gel and run for 60 min at 150 volts in 0.5 X TBE Buffer (BioRad). Gels were stained with ethidium bromide and imaged on a BioRad ChemiDoc. Gel densitometry measurements were performed using ImageJ. For each lane, the total densitometry signal was calculated by adding the densitometry values corresponding to the PstI-digested species (lower band) and undigested species (upper band). The fraction unremodeled value for each lane was then calculated using the following formula: fraction unremodeled= signalundigested/signalundigested+ signaldigested […]

[4] = biological target: T2, ALC1 macrodomain; settings: free ADP-ribose molecules; ref Singh et al., 2017; cited from earlier work
From the text: We therefore chose to pursue ALC1 for our initial ADP-ribosylated histone peptide interaction studies. Nine fluorescently-labeled, ADP-ribosylated histone peptides (H2BS6ADPr1-4 and H3S10ADPr ...

CC(C)C[C@H](NC(=O)[C@H](CCC(N)=O)NC(=O)[C@H](CCCCN)NC(=O)[C@H](CCCNC(=N)N)NC(=O)[C@@H]1CCCN1C(=O)[C@H](C)NC(=O)[C@H](CCCCN)NC(=O)CNC(=O)CNC(=O)[C@@H](NC(=O)[C@H](CO[C@H]1O[C@H](COP(=O)(O)OP(=O)(O)OC[C@H]2O[C@@H](n3cnc4c(N)ncnc43)[C@H](O[C@H]3O[C@H](COP(=O)(O)OP(=O)(O)OC[C@H]4O[C@@H](n5cnc6c(N)ncnc65)[C@H](O[C@H]5O[C@H](COP(=O)(O)OP(=O)(O)OC[C@H]6O[C@@H](n7cnc8c(N)ncnc87)[C@H](O[C@H]7O[C@H](COP(=O)(O)OP(=O)(O)OC[C@H]8O[C@@H](n9cnc%10c(N)ncnc%109)[C@H](O[C@H]9O[C@H](COP(=O)(O)OP(=O)(O)OC[C@H]%10O[C@@H](n%11cnc%12c(N)ncnc%12%11)[C@H](O)[C@@H]%10O)[C@@H](O)[C@H]9O)[C@@H]8O)[C@@H](O)[C@H]7O)[C@@H]6O)[C@@H](O)[C@H]5O)[C@@H]4O)[C@@H](O)[C@H]3O)[C@@H]2O)[C@@H](O)[C@H]1O)NC(=O)[C@H](CCCCN)NC(=O)[C@H](CCCNC(=N)N)NC(=O)[C@H](C)NC(=O)[C@@H](NC(=O)[C@H](CCC(N)=O)NC(=O)[C@H](CCCCN)NC(=O)[C@@H](NC(=O)[C@H](CCCNC(=N)N)NC(=O)[C@H](C)NC(=O)c1ccc2c(c1)C(=O)OC21c2ccc(O)cc2Oc2cc(O)ccc21)[C@@H](C)O)[C@@H](C)O)[C@@H](C)O)C(N)=O [H3S10ADPr5 peptide]
Kd [1]: 42.5 nM
Kd [2]: 27.9 nM

H2BS6ADPr4 peptide: H2B (1-16) peptide with tetra-ADP-ribose at S6; fluorescein-labeled in FP assays ({5(6)‑carboxyfluorescein}-PEPAKS(tetra‑ADP‑ribose)APAPKKGSKK-NH2)
k, ALC1 remodeling rate constant on unmodified nucleosome in the presence of free ADP-ribosylated peptide [3]: 1.886e-05 min⁻¹

H3S10ADPr4 peptide: H3 (1–20) peptide with tetra-ADP-ribose at S10; fluorescein-labeled in FP assays
stimulation of ALC1-dependent remodeling of unmodified nucleosomes by the freely diffusing peptide ([3]; ALC1, unmodified nucleosome 20 nM, peptide 10, 40 or 200 nM): unable to appreciably stimulate
k, ALC1 remodeling rate constant on unmodified nucleosome in the presence of free ADP-ribosylated peptide [3]: 8.323e-05 min⁻¹

tri-ADP-ribose
Kd [4]: ~10 nM
